Test [1] deals with rat passive peritoneal anaphylaxis. The test is described as follows: Rat passive peritoneal anaphylaxis (PPA): histamine, SRS-A and dye in peritoneal fluid. In kind it is in vivo. As to conditions: mean ± SEM, 5-7 rats per group. From the text:
(a) inhibit rat passive peritoneal anaphylaxis; and
(a) Rat passive peritoneal anaphylaxis (PPA)
The method has been described previously (Ross, Janet W., Smith, H. and Spicer, Barbara A. Increased vascular permeability during passive peritoneal anaphylaxis in the rat, Int Arch Allergy appl Immun, 51, 226, 1976).
(§1) Charles River Sprague Dawley male rats of 225-275 g and Dunkin Hartley male white guinea pigs of 250-300 g were used.
This was raised in rats in one of two ways.
Charles River Sprague Dawley male rats of 225 to 275 g were given subcutaneous injections of 10 μg of ovalbumin (chicken egg albumin; crystallised and lyophilised, grade 3, Sigma London), in 0.5 ml of a suspension prepared by adding 1 ml of a 0.1 mg/ml solution of ovalbumin, in isotonic saline, to 4 ml of a 1% suspension of aluminium hydroxide in saline (Alhydrogel; Miles Laboratories, England; diluted 1:1 with isotonic saline). The rats were bled on day 10.
Charles River Sprague Dawley male rats of 225 to 300 g were given intraperitoneal injections of 0.5 ml of Bordetella pertussis vaccine (4×10^10 organisms/ml Burroughs Wellcome, London) and subcutaneous injections of 0.5 ml of an emulsion of 100 mg of ovalbumin of 2 ml of isotonic saline and 3 ml of Freund's incomplete adjuvant (Pifco Laboratories, Michigan USA). The rats were bled on day 18.
The rats were bled by cardiac puncture, the blood was pooled, from groups of rats treated similarly, and the serum separated, stored at -20° and thawed only once before use. The serum sensitised rats for passive cutaneous anaphylaxis (carried out as described: Spicer, Barbara A; Ross, Janet W and Smith, H; Inhibition of immediate hypersensitivity reactions in the rat by disodium cromoglycate and a nitroindanedione, Clin exp, Immunol, 21, 419, 1975) to a dilution of 1:32 to 1:64 persisting for at least 72 hours after sensitisation.
Rats were given intraperitoneal injections of 2 ml of a 1:5 dilution of the rat anti-serum in isotonic saline. Two hours later 0.3 ml of a 5% solution of Pontamine Sky Blue (Raymond A. Lamb, London) in isotonic saline was injected intravenously, followed by an intraperitoneal injection of the test compound in 1 ml of saline; (control rats received 1 ml of saline); followed 30 seconds later by an intraperitoneal injection of 5 ml of a Tyrode solution containing 50 μg/ml heparin and 0.4 mg/ml of ovalbumin. The concentrations of the compounds were quoted as those in the 6 ml of fluid injected intraperitoneally. Exactly 5 minutes after challenge the rats were stunned and bled and their peritoneal fluids were collected by opening their peritoneal cavities over funnels into polycarbonate tubes in ice. The supernatants were separated from the cellular residue by centrifuging at 150 g for 5 minutes and any samples obviously contaminated with blood were discarded for estimattion of dye, histamine and SRS-A. Groups of at least 5 rats were used for each dose of compound and the treatments were randomised.
Collected peritoneal fluids were immediately cooled to 0° C. and centrifuged and the supernatant fluids assayed for dye within 2 hours. 0.5 ml samples of the supernatants were added to 1 ml of 12% trichloracetic acid and stored at -20° C. and used to assay for histamine. The remainders of the supernatant fluids were placed in a boiling water bath for 5 minutes and stored frozen at -20° C. until assayed for SRS-A.
The optical densities (OD) at 625 nm of the supernatants were determined. Samples were taken from supernatants with an OD greater than 2 and diluted in Tyrode's solution before reading.
Histamine was assayed using an automated spectrofluorimetric system (Technicon Autoanalyser) by a method similar to that of Evans, D.P., Lewis, J. A. and Thomson, D. S.; (An automated fluorimetric assay for the rapid determination of histamine in biological fluids. Life Sci 12,327, 1973). […]

Test [2] has as its target T1, histamine on isolated guinea pig ileum (Cavia porcellus, UniProt P31389).
T1 construct: strips of terminal guinea pig ileum suspended in a 4 ml capacity organ bath; from tissue; host or cells: terminal ileum strips of guinea pig (Dunkin Hartley male white guinea pigs)
The test is described as follows: Antihistamine activity (in vitro): antagonism of the spasmogenic effects of histamine on isolated guinea pig ileum. As to conditions: Tyrode solution, 30° C., antagonist 5-640 ng/ml, several assays per compound. As for the experimental part: (b) antagonise the spasmogenic effects of histamine on isolated guinea pig ileum.
as §1
The anti-histamine activity of these compounds were measured in terms of pA2 values on guinea pig ileum using the method described by Arunlakshana, O. and Schild, H. O. (Brit J Pharm, 14, 1959, 48).
The pA2 is defined as the negative logarithm of the molar concentration of antagonist that will reduce the response of a double dose of agonist to that of a single dose.
Assays were carried out using strips of terminal guinea pig ileum suspended in a 4 ml capacity organ bath. The ileum was immersed in aerated Tyrode solution at a temperature of 30° C. and a tension of 1 gm was applied to the gut. Longitudinal contractions of the gut were recorded isotonically using a 2LD01 Devices transducer, a R2502-2 Devices optical wedge and a RE511.20 Smiths servoscribe flat bed recorder.
The tissue was constantly immersed in Tyrode solution washing was by fluid displacement from below. […]
The height of the response was measured in mms and a mean value calculated. […] The dose of histamine which produced a response of 100 mms were obtained for each curve from the graph and the ratio designated CR was calculated from [formula] […]

Values joined by “and” are separate entries in the source; they are usually repeats but may differ in a detail not shown here. Identical values can stand only once.

T1 sequence (P31389 whole entry): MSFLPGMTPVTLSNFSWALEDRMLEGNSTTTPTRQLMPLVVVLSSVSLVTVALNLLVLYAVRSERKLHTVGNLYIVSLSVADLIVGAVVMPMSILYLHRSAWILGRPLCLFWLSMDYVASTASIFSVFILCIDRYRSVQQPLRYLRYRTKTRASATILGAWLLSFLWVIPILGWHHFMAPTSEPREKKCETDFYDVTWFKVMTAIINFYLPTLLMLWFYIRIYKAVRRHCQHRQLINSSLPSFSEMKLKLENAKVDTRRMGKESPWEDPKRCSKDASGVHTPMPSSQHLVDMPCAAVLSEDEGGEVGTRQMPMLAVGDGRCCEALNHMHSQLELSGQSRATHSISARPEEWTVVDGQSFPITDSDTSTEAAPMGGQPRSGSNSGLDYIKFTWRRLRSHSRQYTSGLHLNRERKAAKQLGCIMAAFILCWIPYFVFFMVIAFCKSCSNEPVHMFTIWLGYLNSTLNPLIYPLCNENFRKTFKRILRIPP

In the case of `O=C1c2cccc(OCCCN3CCN(Cc4ccc(Cl)cc4)CC3)c2C(=O)c2nn[nH]c21` [Example 4, 5-{3-[4-(4-Chlorobenzyl)-1-piperazinyl]-propyloxy}-4,9-dihydro-4,9-dioxo-1H-naphtho-[2,3-d]-v-triazole], the “Dye concentration in peritoneal fluid as % of mean of controls” value in test [1] (10^-5 M injected ip) is given as 43 ± 2 % of mean of controls; in test [1] (10^-6 M injected ip), 60 ± 11 % of mean of controls; in test [1] (10^-7 M injected ip), 85 ± 9 % of mean of controls. Moreover, the “Histamine concentration in peritoneal fluid as % of mean of controls” value is given as 10 ± 1 % of mean of controls in test [1] (10^-5 M injected ip), 27 ± 4 % of mean of controls in test [1] (10^-6 M injected ip) and 67 ± 8 % of mean of controls in test [1] (10^-7 M injected ip).

On to `O=C1c2cc(OCCCN3CCN(Cc4ccccc4Cl)CC3)ccc2C(=O)c2[nH]nnc21` [Example 3, 6-{3-[4-(2-Chlorobenzyl)-1-piperazinyl]propyloxy}-4,9-dihydro-4,9-dioxo-1H-naphtho[2,3-d]-v-triazole], for which, in test [2], the “pA2 values obtained in different assays” value is 9.1 and 9.0.

For the compound `O=C1c2cc(OCCCN3CCN(Cc4ccc(Cl)cc4)CC3)ccc2C(=O)c2[nH]nnc21` [Example 1, 6-{3-[4-(4-Chlorobenzyl)-1-piperazinyl]propyloxy}-4,9-dihydro-4,9-dioxo-1H-naphtho[2,3-d]-v-triazole], in test [2] (read-out: pA2 values obtained in different assays (converted)), the Kb was 1 nM and 0.501 nM (2×) and 1.26 nM. Also, the “Dye concentration in peritoneal fluid as % of mean of controls” value in test [1] (2 × 10^-5 M injected ip) was 29 ± 2 % of mean of controls; in test [1] (2 × 10^-6 M injected ip), 47 ± 6 % of mean of controls; in test [1] (10^-5 M injected ip), 38 ± 3 % of mean of controls; in test [1] (10^-6 M injected ip), 54 ± 6 % of mean of controls; in test [1] (10^-7 M injected ip), 75 ± 7 % of mean of controls. Further, the “Histamine concentration in peritoneal fluid as % of mean of controls” value was 16 ± 2 % of mean of controls in test [1] (2 × 10^-5 M injected ip); 23 ± 3 % of mean of controls in test [1] (2 × 10^-6 M injected ip); 17 ± 3 % of mean of controls in test [1] (10^-5 M injected ip); 27 ± 5 % of mean of controls in test [1] (10^-6 M injected ip); 90 ± 16 % of mean of controls in test [1] (10^-7 M injected ip). For the same compound, the “SRS-A concentration in peritoneal fluid as % of mean of controls” value in test [1] (2 × 10^-5 M injected ip) is listed as 75 ± 13 % of mean of controls; in test [1] (2 × 10^-6 M injected ip) it was 119 ± 25 % of mean of controls; in test [1] (10^-5 M injected ip) it was 39 ± 8 % of mean of controls; in test [1] (10^-6 M injected ip), 65 ± 18 % of mean of controls; in test [1] (10^-7 M injected ip), 109 ± 18 % of mean of controls.
